In brackets after ≈: the same amount, converted by molar mass. Like-named read-outs stand apart in the source and are kept apart here.
Tests used:
[1] = tested on: E. coli AR-0349; assay: MICs of a panel of 9 antibiotics with and without compound 3; assay type: cell-based; conditions: for INT (S-R interpretation): CLSI 2021, M100, Ed 31; for MIC: Escherichia coli, AR0349, antibiotic alone, multidrug-resistant E. coli, read-out: MIC; for MIC (+3): in the presence of 1 μg/mL of compound 3
[2] = tested on: E. coli AR-0493; assay: MIC, CLSI broth microdilution, substance alone; assay type: cell-based
Description: A MDR E. coli strain AR-0493 (a.k.a., ATCC BAA-3170) was obtained from the CDC and FDA Antibiotic Resistance Bank and used for the initial screen. […] Considering the difficulties on the discovery of novel antimicrobial reagents against Gram-negative bacteria, we chose to screen the fragment-based library of 3,200 compounds from TimTec (Tampa, FL). […] The screen used a modified broth microdilution assay.
These 10 compounds were tested for their MICs and minimum re-sensitizing concentrations (MRCs) in the presence colistin at 2 μg/mL in E. coli AR-0493. […] To evaluate their toxicity in mammalian cells, the present inventors treated human epithelial adenocarcinoma HeLa cells with each compound at a wide range of concentrations. […]
(§1) General Methods. MDR strains E. coli AR-0493, AR-0346, and AR-0538, Salmonella Enteritidis AR-0496, Salmonella Typhimurium AR-0635, K. pneumoniae AR-0497, A. baumannii AR-0300 and AR-0310 were all obtained from the CDC & FDA Antibiotic Resistance Isolate Bank. E. coli K-12 was a gift from the Copley lab (Department of MCD Biology, University of Colorado Boulder). HeLa cells were purchased from the ATCC. All bacterial strains were grown on trypticase soy agar supplemented with 5% sheep blood (BAP). Bacteria were then cultured in Luria-Bertani (LB) medium at 35° C. until they achieve the log phase before screening or antimicrobial testing using CAMHB media. MIC, MRC, and checkerboard analyses and mammalian growth inhibition analyses in Hela cells were performed as described previously. More details are given in Supporting information.

[3] = tested on: E. coli AR-0493; assay: Minimum re-sensitizing concentration (MRC) in the presence of colistin; assay type: cell-based; conditions: in the presence of 2 μg/mL colistin, E. coli AR-0493
Description: These 10 compounds were tested for their MICs and minimum re-sensitizing concentrations (MRCs) in the presence colistin at 2 μg/mL in E. coli AR-0493.
The present inventors further conducted MRC screens of selected compounds from groups 2-5 in AR-0493. Compound were tested against AR-0493 with compound X+2 μg/mL Colistin.
All compounds were tested for their respective minimum resensitizing concentrations (MRCs) for colistin against E. coli. AR0493, a MDR strain from CDC and FDA Antibiotic Resistance Bank. […] For the symmetrical bisanilino series, 7a-p, electron-donating alkyl and alkoxy groups (entries 7a-g, Table 5) at various positions of the phenyl rings were investigated. […] Three asymmetric bisanilino analogs (7q-s, Table 5) were synthesized based on the SARs of the monoanilino analogs 8a-p (vide infra).
as §1

[4] = tested on: HeLa cells; assay: in vitro; assay type: cell-based, human
Description: These 10 compounds were tested for their MICs and minimum re-sensitizing concentrations (MRCs) in the presence colistin at 2 μg/mL in E. coli AR-0493. […] To evaluate their toxicity in mammalian cells, the present inventors treated human epithelial adenocarcinoma HeLa cells with each compound at a wide range of concentrations.
To evaluate the mammalian toxicity of these analogs, Applicants tested them in cell viability assay using human cervical adenocarcinoma HeLa cells. Their respective half maximal growth inhibition concentration (GI50) was calculated using KaleidaGraph. The selectivity index (SI) for each compound was also calculated as the ratio of their GI50 and MRC. […] Therefore, Applicants selected two bisanilino analogs, 7l and 7m, that bear chlorines at the meta- and para-positions, respectively, of the phenyl groups for further characterization studies. […]. […] Their mammalian toxicities were also evaluated, and SIs calculated. […] Applicants we next explored the scope of analogs 71 and 7m their colistin-potentiating activity in 8 different MDR Gram negative bacteria with diverse genetic backgrounds and resistance mechanisms (Table 7). All strains were obtained from CDC and FDA Antibiotic Resistance Bank. For example, E. coli AR-0493 and K. pneumoniae AR-0497 carry the plasmid that contains the most prevalent mcr-1 gene. E. coli AR-0538, Salmonella Typhimurium AR-0539 and AR-0635 contain the mcr-2, 3, and 4 genes, respectively. These genes encode the phosphoethanolamine transferase, which was originated form the chromosome of A. baumannii, such as AR-0310. […]. A. baumannii AR-0310 appears more sensitive to these two compounds and the MICs of colistin was reduced to 0.25 μg/mL.
as §1

| SMILES | MIC [2] | MRC (minimum re-sensitizing concentration) [3] | GI50 [4] | further results |
| --- | --- | --- | --- | --- |
| C[C@@H](O)[C@H]1C(=O)N2C(C(=O)O)=C(S[C@@H]3CN[C@H](C(=O)N(C)C)C3)[C@H](C)[C@H]12 [Meropenem] | – | – | – | INT (S-R interpretation) [1]: S; MIC [1]: 0.25 µg/mL (≈ 0.652 µM); MIC (+3) [1]: 0.25 µg/mL |
| Cc1cccc(Nc2nc3nonc3nc2O)c1 [Compound 4] | did not show either antimicrobial or RMA activity | did not show either antimicrobial or RMA activity | – | – |
| Oc1nc2nonc2nc1Nc1ccc(F)cc1 [Compound 8j] | – | 32 µg/mL | – | – |
| CC(C)(O/N=C(\C(=O)N[C@@H]1C(=O)N2C(C(=O)[O-])=C(C[n+]3ccccc3)CS[C@H]12)c1csc(N)n1)C(=O)O [Ceftazidime] | – | – | – | INT (S-R interpretation) [1]: R; MIC [1]: > 64 µg/mL; MIC (+3) [1]: >64 µg/mL |
| Cc1cccc(Nc2nc3nonc3nc2Nc2cccc(C)c2)c1 [Compound 7c] | >64 µg/mL | 0.5 µg/mL | 1.5 µg/mL | – |
| Cc1ccc(Nc2nc3nonc3nc2Nc2ccc(C)cc2)cc1 [Compound 7d] | >64 µg/mL | 0.5 µg/mL | 1.1 µg/mL | – |
| Fc1ccc(Nc2nc3nonc3nc2Nc2ccc(F)cc2)cc1 [Compound 7j] | >64 µg/mL | 0.5 µg/mL | 9.4 µg/mL | – |
| Oc1nc2nonc2nc1Nc1ccc(Cl)cc1 [Compound 8m] | – | 32 µg/mL | – | – |
| COc1ccc(Nc2nc3nonc3nc2Nc2ccc(OC)cc2)cc1 [Compound 7g] | – | >64 µg/mL | – | – |
| Cc1ccc(Nc2nc3nonc3nc2O)cc1 [Compound 8d] | – | 64 µg/mL | – | – |
| CC[C@H]1OC(=O)[C@H](C)[C@@H](O[C@H]2C[C@@](C)(OC)[C@@H](O)[C@H](C)O2)[C@H](C)[C@@H](O[C@@H]2O[C@H](C)C[C@H](N(C)C)[C@H]2O)[C@](C)(O)C[C@@H](C)CN(C)[C@H](C)[C@@H](O)[C@]1(C)O [Azithromycin] | – | – | – | INT (S-R interpretation) [1]: R; MIC [1]: > 64 µg/mL; MIC (+3) [1]: >64 µg/mL |
| COc1cccc(Nc2nc3nonc3nc2Nc2cccc(OC)c2)c1 [Compound 7f] | – | 2 µg/mL | – | – |
| Cc1ccccc1Nc1nc2nonc2nc1Nc1ccccc1C [Compound 7b] | – | 8 µg/mL | – | – |
| Oc1nc2nonc2nc1Nc1ccccc1 [Compound 8a] | – | >64 µg/mL | – | – |
| Cc1cccc(Nc2nc3nonc3nc2Cl)c1 [ST024336, reference compound] | – | 2 µg/mL | – | MRC (minimum re-sensitizing concentration) ([3]; listed as 1): > 64 µg/mL; GI50 ([4]; HeLa cells, 24 hours): 10 µg/mL |
| COc1ccccc1Nc1nc2nonc2nc1Nc1ccccc1OC [Compound 7e] | – | >64 µg/mL | – | – |
| Fc1cccc(Nc2nc3nonc3nc2Nc2cccc(F)c2)c1 [Compound 7i] | >64 µg/mL | 0.5 µg/mL | 20 µg/mL | – |
| FC(F)(F)Oc1ccccc1Nc1nc2nonc2nc1Nc1ccccc1OC(F)(F)F [Compound 7n] | – | >64 µg/mL | – | – |
| c1ccc(Nc2nc3nonc3nc2Nc2ccccc2)cc1 [Compound 7a] | >64 µg/mL | 0.5 µg/mL | 4.4 µg/mL | – |
| FC(F)(F)Oc1cccc(Nc2nc3nonc3nc2Nc2cccc(OC(F)(F)F)c2)c1 [Compound 7o] | >64 µg/mL | 0.25 µg/mL | 43 µg/mL | MRC (minimum re-sensitizing concentration) ([3]; listed as 57o): 0.25 µg/mL |

— patent US20250170127A1, “RE-SENSITIZING MULTIDRUG-RESISTANT (MDR) GRAM-NEGATIVE BACTERIA TO COLISTIN USING IONOPHORES” (The Regents of the University of Colorado, a body corporate, priority 2022, published 2025)
